The values that follow come from PubChem BioAssay (NCI).

Among the test systems are CAKI-1 renal; HOP-62 NSCLC; MDA-MB-435; RXF 393 renal; BT-549 breast; NCI-H522 lung; HCT-116 colon; IGROV1 ovarian; M14 melanoma; NCI/ADR-RES ovarian; MCF7 breast; LOX IMVI melanoma; SW-620 colon; MALME-3M melanoma; SR leukemia.
Test in all cases: DTP human tumour cell line panel, 48 h

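Assay format: 96-well plates, 48-hour exposure. At the TGI there is no net growth.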 A value given as a limit tells only on which side of the number the result lay.

A word on the TGI: it is the concentration at which net growth stops. The low end stands for greater sensitivity of the cells, the high end for lower sensitivity of the cells. Take `CCCCCCCCCCCCCCCCCCNC(=O)C(N)Cc1ccc(OCc2ccccc2)cn1` (stereo not given): the TGI in the test with CAKI-1 renal was found to be 32.7 µM; in the test with HOP-62 NSCLC, 40 µM; in the test on MDA-MB-435, 32.5 µM; with RXF 393 renal, 42.4 µM; in the test with BT-549 breast, 57.3 µM; with NCI-H522 lung it was 38.5 µM. Also, the TGI was 38.2 µM in the test with HCT-116 colon; 32.6 µM in the test with IGROV1 ovarian; 33.3 µM in the test with M14 melanoma; 38.4 µM in the test on NCI/ADR-RES ovarian; 35.8 µM in the test with MCF7 breast; 41.2 µM in the test on LOX IMVI melanoma. Also, the TGI with SW-620 colon turned out to be 59.4 µM; in the test on MALME-3M melanoma, 42.9 µM.

Turning to `O=C1/C(=C/c2cccc(Br)c2)CCc2ccccc21`, the TGI with CAKI-1 renal was found to be 30.3 µM; in the test on HOP-62 NSCLC, 30.1 µM; in the test on MDA-MB-435, 25.4 µM; in the test with BT-549 breast, 22.2 µM; in the test on NCI-H522 lung it was 24.3 µM; in the test on HCT-116 colon, 19.9 µM. Also, the TGI in the test on IGROV1 ovarian is 24.7 µM; in the test with M14 melanoma, 29.4 µM; with NCI/ADR-RES ovarian it was 33.2 µM; with MCF7 breast, 14.9 µM; in the test with SR leukemia it was 18.4 µM; with LOX IMVI melanoma, 28.5 µM. Further, the TGI in the test with SW-620 colon was found to be 17.9 µM; in the test on MALME-3M melanoma it was 26 µM.

Take `O=C1/C(=C\c2ccc(O)cc2)CCC/C1=C/c1ccc(Cl)c(Cl)c1`: the TGI with CAKI-1 renal was determined as 16.7 µM; with HOP-62 NSCLC it was 16.1 µM; with MDA-MB-435, 9.51 µM; in the test with RXF 393 renal, 5.8 µM; with BT-549 breast, 7.49 µM; in the test on HCT-116 colon, 4.01 µM. Besides, the TGI in the test on IGROV1 ovarian was 1.17 µM; with M14 melanoma, 5.44 µM; in the test on NCI/ADR-RES ovarian, 4.27 µM; in the test with MCF7 breast, 14.9 µM; in the test on LOX IMVI melanoma, 3.62 µM; in the test on SW-620 colon it was 12 µM. In addition, the TGI with MALME-3M melanoma was found to be 17.5 µM.

As for `C=C(C)C1=CCC[C@]2(C1)N=C(OC)[C@@H](C(C)C)N=C2OC`, the TGI in the test on CAKI-1 renal, in the test with HOP-62 NSCLC, in the test on MDA-MB-435, in the test on BT-549 breast, with NCI-H522 lung and in the test with HCT-116 colon was above 100 µM throughout. Besides, the TGI in the test on IGROV1 ovarian, in the test on M14 melanoma, with NCI/ADR-RES ovarian, with MCF7 breast, with SW-620 colon and with MALME-3M melanoma was above 100 µM in each case.

Regarding `COC(=O)c1ccc(C)cc1CC1Cc2cc(C)ccc2C1=O` (stereo not given), the TGI with CAKI-1 renal, in the test on HOP-62 NSCLC, with MDA-MB-435, in the test on BT-549 breast, with NCI-H522 lung and with HCT-116 colon was above 100 µM each time. The TGI with IGROV1 ovarian, with M14 melanoma, with NCI/ADR-RES ovarian, in the test on MCF7 breast, in the test on SR leukemia and with LOX IMVI melanoma was above 100 µM throughout. For the same compound, the TGI with SW-620 colon and with MALME-3M melanoma was above 100 µM throughout.

In the case of `O=C1/C(=C/c2cccc(F)c2)CCCc2ccccc21`, the TGI with CAKI-1 renal was determined as 31.6 µM; with HOP-62 NSCLC it was 27.4 µM; in the test with MDA-MB-435, 29.7 µM; in the test on BT-549 breast, 34.1 µM; in the test with NCI-H522 lung, 25.5 µM; in the test on HCT-116 colon it was 29 µM. The TGI in the test on IGROV1 ovarian came out at 24.6 µM; in the test on M14 melanoma it was 26.8 µM; in the test with NCI/ADR-RES ovarian, 33.1 µM; with MCF7 breast, 30.5 µM; in the test on SR leukemia it was 32.8 µM; in the test on LOX IMVI melanoma it was 30.1 µM. In addition, the TGI in the test with SW-620 colon is 30.5 µM; with MALME-3M melanoma, 23.8 µM.

Consider `COC(=O)C1(C(=O)OC)Cc2ccc(OC)cc2C2=C1C(=O)c1ccccc1C2=O`, for which the TGI was 7.72 µM in the test with CAKI-1 renal; 21.4 µM with HOP-62 NSCLC; 3.52 µM with MDA-MB-435; 37.3 µM in the test with BT-549 breast; 8.89 µM with NCI-H522 lung; 10.9 µM with HCT-116 colon. Further, the TGI in the test on IGROV1 ovarian was 8.53 µM; in the test with M14 melanoma it was 34.5 µM; in the test on NCI/ADR-RES ovarian, above 28.4 µM; in the test with MCF7 breast it was 7.3 µM; with SR leukemia it was above 100 µM; in the test with LOX IMVI melanoma it was 5.39 µM. The TGI in the test with SW-620 colon was 16.9 µM; in the test on MALME-3M melanoma it was 26.3 µM.

As for `C=CCN1C(=O)C=C(c2ccccc2)n2ncc3cccc1c32`, the TGI in the test on CAKI-1 renal, in the test with HOP-62 NSCLC, in the test with BT-549 breast, with NCI-H522 lung, in the test on HCT-116 colon and in the test on IGROV1 ovarian was above 100 µM in each case. For the same compound, the TGI in the test with M14 melanoma, with NCI/ADR-RES ovarian, in the test with MCF7 breast, in the test on SR leukemia, in the test with LOX IMVI melanoma and in the test on SW-620 colon was above 100 µM throughout. This compound had a TGI with MALME-3M melanoma above 100 µM.

For the compound `O=c1oc2ccc3ccccc3c2cc1-c1cn2ccccc2n1`, the TGI in the test with CAKI-1 renal was 75.1 µM; in the test on HOP-62 NSCLC, above 100 µM; in the test with MDA-MB-435, above 100 µM; in the test with RXF 393 renal it was above 100 µM; with BT-549 breast it was above 100 µM; in the test on NCI-H522 lung it was above 100 µM. Further, the TGI with HCT-116 colon, with IGROV1 ovarian, with M14 melanoma, in the test on NCI/ADR-RES ovarian, in the test with SR leukemia and in the test on LOX IMVI melanoma was above 100 µM throughout. In the test on SW-620 colon, this compound showed a TGI above 100 µM.

In the case of `CCOC(=O)P(=O)(O)c1ccc(N(C)Cc2ccccc2)cc1`, the TGI in the test with CAKI-1 renal, with HOP-62 NSCLC, in the test with MDA-MB-435, in the test with BT-549 breast, in the test with NCI-H522 lung and in the test on HCT-116 colon was above 100 µM in each case. The TGI in the test on IGROV1 ovarian, with M14 melanoma, in the test with NCI/ADR-RES ovarian, in the test on MCF7 breast, in the test on SR leukemia and in the test with LOX IMVI melanoma was above 100 µM in each case. In addition, the TGI with SW-620 colon and in the test on MALME-3M melanoma was above 100 µM in each case.
